The text below walks through data of ChEMBL document CHEMBL1201862, “PubChem BioAssay data set” (2004).

Assay [1] can be described thus: CFTR ΔF508 corrector activity in bronchial cells, dose response, human bronchial epithelial cells, plate reader, cherry-pick, two tests (AID 743267). Type of assay: functional, cell-based.
For assay [2], the target named is Paired box protein Pax-8 (Homo sapiens, UniProt Q06710). As to the kind of experiment: inhibitors of PAX8-driven TPO luciferase reporter, dose response, RMG-I cells, cherry-pick (AID 687027).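 Further: luciferase reporter driven by Pax8 target thyroperoxidase promoter measured by SteadyGlo luminescence.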 The class given is functional, cell-based. On the technique in general: A reporter such as luciferase makes a cellular process visible.
The nature of assay [3]: IGROV1 ovarian cancer cell cytotoxicity, dose response, PAX8 inhibitor project, plate reader, dry powder samples (AID 743043). Type of assay: functional, cell-based. The following applies: IGROV-1.
For assay [4], the target named is T1, High affinity choline transporter 1 (Homo sapiens, UniProt Q9GZV3).
T1 sequence (Q9GZV3 whole entry): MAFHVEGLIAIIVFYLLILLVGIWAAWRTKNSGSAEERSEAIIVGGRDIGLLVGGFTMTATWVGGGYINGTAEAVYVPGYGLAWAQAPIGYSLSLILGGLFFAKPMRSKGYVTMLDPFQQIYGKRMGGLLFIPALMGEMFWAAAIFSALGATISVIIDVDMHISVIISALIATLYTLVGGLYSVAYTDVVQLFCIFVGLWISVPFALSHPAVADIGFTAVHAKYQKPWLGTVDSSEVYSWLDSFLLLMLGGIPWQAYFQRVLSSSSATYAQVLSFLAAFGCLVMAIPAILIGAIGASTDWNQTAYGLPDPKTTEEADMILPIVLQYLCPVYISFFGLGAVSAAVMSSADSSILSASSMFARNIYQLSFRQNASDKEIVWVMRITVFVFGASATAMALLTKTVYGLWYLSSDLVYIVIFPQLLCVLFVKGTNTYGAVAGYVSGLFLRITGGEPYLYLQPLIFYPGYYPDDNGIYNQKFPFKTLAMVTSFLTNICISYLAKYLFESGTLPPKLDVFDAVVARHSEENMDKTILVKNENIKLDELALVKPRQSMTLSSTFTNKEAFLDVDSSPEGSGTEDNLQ
Kind of assay: CHT choline uptake inhibitors, dose response, cell-based, HEK-293 hCHT, [3H]-choline uptake (AID 652177). Type of assay: functional.

A short description of assay [5]: LGR2 antagonists, dose response, cell-based, HEK293, CRE-luciferase reporter, cherry pick, set 2 (AID 743343).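 Further: transfected cells were stimulated with diluted bursicon conditioned medium after compound addition.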 The class given is functional.
The nature of assay [6]: HEK293 cell cytotoxicity, dose response, cytotoxicity control, plate reader, cherry-picked samples (AID 743446). The class given is functional, cell-based.
A short description of assay [7]: A549 cell cytotoxicity, dose response, cytotoxicity control, plate reader, cherry-pick, antagonist series (AID 743412). The class given is functional, cell-based.
Assay [8] can be described thus: MC4R antagonists, dose response, counter-screen for LGR2 antagonist project, cell-based, plate reader, cherry pick (AID 743444).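 Further: transfected HEK 293 cells stimulated with alpha-MSH peptide; potency of inhibitors of the alpha-MSH evoked signal.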 Type of assay: functional. For orientation: Counterscreens check selectivity or assay interference.
Assay [9] in a line: LGR2 antagonists, dose response, cell-based, HEK293, CRE-luciferase reporter, cherry pick (AID 743342). Type of assay: functional.
Assay [10] concerns the target Protein Wnt-3a (Mus musculus, UniProt P27467). As to the kind of experiment: SAR analysis of small molecule antagonists of Gli-SUFU in a Wnt3a luminescent reporter assay. Type of assay: functional.
For assay [11], the system named is H9c2. Kind of assay: cells. The note with it: Rattus norvegicus, H9c2, Myocardium. The class given is functional, cell-based.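 Further: confirmatory concentration-response retest of ultra-high-throughput screening hits for modulation of myocardial damage; cell death induced by hydrogen peroxide oxidative stress; compound pretreatment for 60 min then peroxide exposure for 2 h; potency is for protecting the cells against peroxide damage rather than for killing them.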
In assay [12] the target is Botulinum neurotoxin type F (Clostridium botulinum, UniProt P30996). Kind of assay: High-throughput multiplex microsphere dose response for inhibitors of toxin protease, specifically Botulinum neurotoxin light chain F protease, compounds from Cherry Pick 02. The class given is functional. The following applies: read-out: EC50_MICROM.
Assay [13] in a line: cells. Type of assay: functional, cell-based. The note with it: HEK-CNG.
Assay [14] can be described thus: HeLa 4N DNA content increase, dose response, cell-based, IC50 (AID 1117351). The class given is functional.
Assay [15] in a line: cytotoxicity toward Colo320 cells – cell-based, CellTiter-Glo luminescence, IC50, dose response (AID 1117334). Type of assay: functional. The note with it: COLO 320. For orientation: Cellular ATP, detected with luciferase, serves as a proxy for viable cell number.
The nature of assay [16]: Shn3 3'UTR reporter inhibitors, dose response, cell-based, Clone20 osteoblasts, firefly luciferase, cherry-picked (AID 624132).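 Further: firefly luciferase luminescence from reporter carrying the Shn3 3'UTR in osteoblasts.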 Type of assay: functional.
For assay [17], the target named is Galanin receptor type 3 (Homo sapiens, UniProt O60755). As to the kind of experiment: Fluorescence-based cell-based primary high throughput dose response assay to identify antagonists of the Galanin Receptor 3 (GalR3). Type of assay: functional.
The nature of assay [18]: SNU-C1 cell viability reduction, dose response, CellTiter-Glo luminescence (AID 1117323). Type of assay: functional, cell-based.
Assay [19] in a line: control 3'UTR Renilla luciferase suppression, dose response, counter-screen for Shn3 inhibitor project, cell-based, Clone20-Shn3RL, cherry-picked (AID 624133). Type of assay: functional.
Assay [20] in a line: CellTiter-Glo luminescent dose response of DLD-1 viability loss (AID 1117352). Type of assay: functional.
Assay [21] can be described thus: HeLa 2N DNA content increase, dose response, cell-based, IC50 (AID 1117349). The class given is functional.
A short description of assay [22]: HepG2 cell cytotoxicity, dose response, cytotoxicity control for Shn3 inhibitor project, CellTiter-Glo, cherry-picked (AID 624134). The class given is functional, cell-based.
Assay [23] in a line: cytotoxicity toward HT-29 cells – cell-based, CellTiter-Glo luminescence, IC50, dose response (AID 1117330). Type of assay: functional.
Assay [24] in a line: Concentration-dependent survival of SW480 colon cancer line, luminescence detection with CellTiter-Glo, half-maximal inhibitory concentration (AID 1117338). The class given is functional.
The target of assay [25] is COUP transcription factor 2 (Homo sapiens, UniProt P24468). Kind of assay: Luminescence-based cell-based high throughput dose response assay to identify inhibitors of COUP-TFII (NR2F2). Type of assay: functional.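 Further: HEK293 cells transiently cotransfected with COUP-TFII expression vector and reporter; luciferase reporter luminescence driven by COUP-TFII from the pX2-168 reporter plasmid.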
A short description of assay [26]: cytotoxicity toward HCT116 cells – cell-based, CellTiter-Glo luminescence, IC50, dose response (AID 1117332). The note with it: HCT-116. Type of assay: functional.

Calls of active or inactive are those of the source.

Chain of COUP transcription factor 2 (P24468 whole entry): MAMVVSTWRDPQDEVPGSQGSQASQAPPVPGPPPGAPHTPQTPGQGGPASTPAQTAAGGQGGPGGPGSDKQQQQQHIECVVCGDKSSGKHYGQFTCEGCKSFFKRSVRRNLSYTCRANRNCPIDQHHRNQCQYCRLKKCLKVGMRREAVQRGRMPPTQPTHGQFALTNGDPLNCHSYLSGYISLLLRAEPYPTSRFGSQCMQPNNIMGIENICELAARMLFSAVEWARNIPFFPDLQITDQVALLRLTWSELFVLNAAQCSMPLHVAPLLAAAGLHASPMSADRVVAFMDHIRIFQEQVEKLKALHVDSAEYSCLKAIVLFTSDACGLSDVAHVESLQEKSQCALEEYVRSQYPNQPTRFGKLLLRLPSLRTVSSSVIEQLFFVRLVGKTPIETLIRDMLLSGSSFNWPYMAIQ
Chain of Botulinum neurotoxin type F (P30996 1-436 limits assumed): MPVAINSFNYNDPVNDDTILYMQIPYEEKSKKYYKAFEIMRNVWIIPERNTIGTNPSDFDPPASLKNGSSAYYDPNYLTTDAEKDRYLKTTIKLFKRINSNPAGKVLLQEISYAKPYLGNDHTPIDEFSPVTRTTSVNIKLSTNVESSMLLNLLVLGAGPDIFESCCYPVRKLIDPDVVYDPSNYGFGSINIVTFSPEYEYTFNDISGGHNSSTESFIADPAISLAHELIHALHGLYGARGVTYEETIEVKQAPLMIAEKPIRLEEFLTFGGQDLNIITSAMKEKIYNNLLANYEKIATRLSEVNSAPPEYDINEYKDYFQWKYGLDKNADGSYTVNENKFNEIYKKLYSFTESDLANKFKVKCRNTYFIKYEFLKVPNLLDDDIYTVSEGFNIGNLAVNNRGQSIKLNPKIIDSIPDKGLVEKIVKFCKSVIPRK
Chain of Galanin receptor type 3 (O60755 whole entry): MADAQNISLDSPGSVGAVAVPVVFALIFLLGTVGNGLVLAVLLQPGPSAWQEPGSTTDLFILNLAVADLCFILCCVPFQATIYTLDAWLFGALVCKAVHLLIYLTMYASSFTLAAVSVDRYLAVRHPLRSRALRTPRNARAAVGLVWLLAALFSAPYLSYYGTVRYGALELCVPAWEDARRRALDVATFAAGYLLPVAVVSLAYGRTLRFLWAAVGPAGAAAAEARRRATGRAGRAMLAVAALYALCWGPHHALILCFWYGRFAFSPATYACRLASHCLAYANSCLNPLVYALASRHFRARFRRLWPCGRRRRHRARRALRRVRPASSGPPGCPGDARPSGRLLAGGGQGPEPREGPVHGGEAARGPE
Chain of Paired box protein Pax-8 (Q06710 whole entry): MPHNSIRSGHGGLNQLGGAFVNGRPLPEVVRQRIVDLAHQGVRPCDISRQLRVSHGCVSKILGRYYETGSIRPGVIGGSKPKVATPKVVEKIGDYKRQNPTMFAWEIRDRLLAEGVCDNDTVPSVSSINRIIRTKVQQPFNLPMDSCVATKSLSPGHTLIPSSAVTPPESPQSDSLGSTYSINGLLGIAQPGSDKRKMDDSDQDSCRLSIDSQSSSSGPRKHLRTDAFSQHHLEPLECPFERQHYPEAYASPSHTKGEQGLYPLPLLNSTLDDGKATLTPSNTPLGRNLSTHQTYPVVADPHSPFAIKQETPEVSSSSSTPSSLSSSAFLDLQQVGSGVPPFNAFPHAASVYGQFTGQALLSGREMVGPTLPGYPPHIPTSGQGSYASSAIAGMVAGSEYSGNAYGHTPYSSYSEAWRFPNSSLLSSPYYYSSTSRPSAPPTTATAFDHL
Chain of Protein Wnt-3a (P27467 whole entry): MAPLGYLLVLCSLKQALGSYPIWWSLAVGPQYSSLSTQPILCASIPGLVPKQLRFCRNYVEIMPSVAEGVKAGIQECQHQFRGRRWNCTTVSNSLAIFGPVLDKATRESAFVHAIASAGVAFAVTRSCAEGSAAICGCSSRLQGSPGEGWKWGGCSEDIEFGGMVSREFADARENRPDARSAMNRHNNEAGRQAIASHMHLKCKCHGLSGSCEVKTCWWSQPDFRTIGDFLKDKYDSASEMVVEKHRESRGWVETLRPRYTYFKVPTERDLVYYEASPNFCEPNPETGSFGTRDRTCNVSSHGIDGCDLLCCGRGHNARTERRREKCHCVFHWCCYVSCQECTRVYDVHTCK

`COc1ccccc1NS(=O)(=O)c1cc(NN=C(C(C)=O)C(=O)Nc2ccc(Cl)cc2)ccc1C`: the concentration at half-maximal activity (AC50) (usually the concentration giving half of the maximal activity seen) in assay [1] is 36.6 µM (active).
As for `C[C@H]1CCCCO[C@H](CN(C)C(=O)C2CCCCC2)[C@@H](C)CN([C@@H](C)CO)C(=O)c2cc(NC(=O)Nc3ccc(F)cc3)ccc2O1`, the AC50 in [2] is 8.1 µM (active); in [3] it was 57.6 µM (active).
Take `COc1ccc(C(=O)NCCN2CCCC2)cc1OC1CCN(C(C)C)CC1`: the IC50 (in general, the concentration needed to halve the response being measured) in [4] is 1.84 µM (active).
For the molecule `N#C[C@@H]1[C@H](c2ccc(C#Cc3ccccc3F)cc2)[C@@H](CO)N1C(=O)C1CC1`, the AC50 in assay [5] was 5.15 µM (active); in assay [6], 33.5 µM (active); in assay [7] it was 24.9 µM (active); in [8] it was 5.44 µM (active).
On to `C[C@H](CO)N1C[C@H](C)[C@H](CN(C)C(=O)Nc2cccc3ccccc23)OCCCC[C@H](C)Oc2ccc(NC(=O)C3CCCCC3)cc2C1=O`, for which the AC50 is 43.9 µM (active) in [7] and 0.747 µM (active) in assay [9].
Regarding `CN(C)c1cc(NC(=O)c2cccc(C#N)c2)ncn1`, in assay [10], the IC50 is > 21.8 µM (inactive).
For the molecule `COc1ccc(-c2oc3c(OC)c(OC)c(OC)c(O)c3c(=O)c2OC)cc1OC`, the IC50 in assay [11] was > 79 µM (inactive). Besides, in [12], the EC50 was > 20 µM (inactive).
As for `Cc1nc2ccccc2n1Cc1ccc(Cl)cc1` [CHLORMIDAZOLE], the EC50 in assay [13] was > 29.9 µM (inactive). The IC50 in assay [14] was > 10 µM (inactive); in [15] it was 15.2 µM (inactive); in assay [17], 0.203 µM (active); in assay [18], > 20 µM (inactive); in assay [20], > 20 µM (inactive); in assay [21] it was > 10 µM (inactive). In addition, the IC50 is > 20 µM (inactive) in assay [23], 5.33 µM (inactive) in assay [24], 10.6 µM (inactive) in assay [25] and 1.22 µM (active) in assay [26]. The AC50 in assay [16] is 1.46 µM (active); in assay [19], 28.2 µM (active); in assay [22], 2.79 µM (active).
